The text below walks through data of patent publication US20250144216A1, “NEAR-INFRARED PHOTODYNAMIC THERAPY USING SECOND HARMONIC GENERATION NANOPARTICLE AND VISIBLE LIGHT REACTIVE PHOTOSENSITIZER” (ARIEL SCIENTIFIC INNOVATIONS LTD., priority 2022, published 2025).

The subject of assay [1] is S. aureus (ATCC 25923). The assay is described as follows: microbe, parasite or virus in culture. Format: cell-based. Here is the method:
Laser Setup—Laser was generated using Millennia® Pro s Series 5SJSPG (Spectra physics, USA) laser setup to generate a […] continuous wave laser which was passed through an ultra-fast oscillator Femtosource® Scientific 20 (Femtolasers, Inc.) to generate the Near Infrared (800 nm) pulsed wave (pulse frequency 76.9 MHz) beamline. The beamline was appropriately arranged to provide real-time power readings using a beam splitter. Power measurements were recorded using a compact power meter PM100D (Thorlabs, Inc.) with S370C thermal power head (Thorlabs, Inc.)).
S. aureus (ATCC 25923) were grown on Brain Heart agar plates (BHA, Acumedia, Lansing, MI, USA) for 24 hours. Grown cells were transferred into Brain Heart broth (BH, Acumedia, Lansing, MI, USA) and incubated at 37±1° C. with shaking at 170 rpm until reaching the absorbance A=0.10±0.02 at 660 nm, corresponding to a final concentration of 10^8 cells/ml and diluted appropriately to the final concentration of 10^3-10^4 cells/ml with commercially available sterile 0.9% saline solution before the light and dark phototoxicity assays.
200 μl bacterial suspensions in 0.9% sterile saline solution (10^3-10^4 cells/μl) were incubated with 20 μl of PDT nanoparticle conjugates (400 μg/ml) under laser (800 nm, 232-228 mW,76.9 MHz) with shaking for 10 minutes. […] The CFUwere counted using a colony counter Scan 500.

The subject of assay [2] is S. aureus (ATCC 25923). Nature of the assay: Dark toxicity, viability of S. aureus (CFU count). In kind it is cell-based. The settings on record: dark conditions; compared to the control. The method, then: S. aureus (ATCC 25923) were grown on Brain Heart agar plates (BHA, Acumedia, Lansing, MI, USA) for 24 hours. […] 200 μl Cell suspensions in 0.9% saline (10^3-10^4 cells/ml) in sterile saline solution were incubated with 20 μl of PDT nanoparticle conjugates (400 μg/ml) in the dark with shaking for 30 minutes. Subsequently, aliquots of each sample (100 μl) were spread over BHA plates with a Drigalsky spreader and incubated at 37° C. for 24 h. The colony forming units (CFU) were counted using a colony counter Scan 500 (Interscience, Saint-Nom-la-Breteche, France).

SMILES strings stand for the structures.

As to `COc1cc(/C=C/C(=O)CC(=O)/C=C/c2ccc(O)c(OC)c2)ccc1O` [Curcumin, curcumin], in the assay with S. aureus (ATCC 25923) [1] (10 minutes pulsed NIR (800 nm) laser exposure), the “viability of S. aureus increased by” value came out at 20.2±1.4%. In the assay with S. aureus (ATCC 25923) [2], the “increase in viability of S. aureus” value is reported as 14.2±1.1%. For the molecule `C=CC1=C(C)c2cc3[nH]c(cc4nc(cc5[nH]c(cc1n2)c(C)c5CCC(=O)O)C(CCC(=O)O)=C4C)c(C)c3C=C` [PPIX, protoporphyrin IX], the inhibition at 400 µg/mL in the assay with S. aureus (ATCC 25923) [1] (Staphylococcus aureus, ATCC25923, 10 min, read-out: viability of S. aureus reduced by) worked out at 20.4 ± 2.5%.
